Data from patent US20090137391A1, “Use of benzyladenine to improve emergence of seeds treated with abscisic acid” (priority 2007, published 2009).

Assays:
Type in all cases: in vivo
canola seed [1] = assay: Canola seed treatment, soil emergence: ABA-dose x benzyladenine (as Maxcel) dose factorial
Description: (§1) The seed was planted in plastic boxes containing 1 kg of typical agricultural silt loam. One hundred seeds were planted 2 cm deep in each plastic box, and the soil in the box was adjusted to 21% soil moisture (wet-weight basis). Two replications of the experiment were incubated under constant light in a 10° C. chamber. The soil temperature averaged 12.6° C. The boxes were watered up to the correct weight every 1-2 days, and checked for emergence. Counts of seedlings were continued until it became clear that emergence had ceased (28 days). The final count of emerged seedlings was expressed as a percentage of the 100 seeds planted.
(§2) The daily counts were converted to proportions of the final emergence of the box, and a Gompertz curve was fitted to the data from each box using SAS Proc NLIN. From the parameters of the model, median emergence time (T50) and quartile range (Qrange) were estimated for each box. Analysis of variance was performed and means calculated for each of the three responses (Final emergence, T50, Qrange).
The experiment was set up as an ABA-dose x benzyladenine-dose factorial experiment, with four doses of ABA (0, 25, 50 and- 100 g/cwt) and three doses of benzyladenine (0, 1 and 5 g/cwt) for a total of 12 treatment combinations. The treatments were made up in 1 ml samples of experimental aqueous seed treatment slurry. ABA was added in the form of a water solution of the ammonium salt. Benzyladenine was added in the form of Maxcel. Treatments receiving less than the maximum amount of Maxcel, received an appropriate amount of Maxcel blank formulation, so that each slurry sample was identical with regard to Maxcel inert ingredients. All of the seed treatment slurry samples contained CF-Clear film-forming agent and Colorcoat Red (Becker Underwood), each at 1 oz/cwt, and 0.167 oz/cwt Maxim XL fungicide (Syngenta). The slurry application volume was 40 oz/cwt (cwt=100 lbs of seed). Ten gram samples of canola seed were treated with the experimental slurries using a Hege 11 seed treater with a six-inch bowl.
The seed was germinated and data analyzed as described under Example 1.

canola seed [2] = assay: Canola seed treatment, soil emergence: ABA-dose x benzyladenine (technical powder) dose factorial
Description: The experiment was set up as an ABA-dose×BA-dose factorial experiment, with four doses of ABA (0, 25, 50, and 100 g/cwt) and four doses of benzyladenine (0, 1, 5 and 25 g/cwt) for a total of 16 treatment combinations. The treatments were made up in 1 ml samples of experimental aqueous seed treatment slurry. ABA was added in the form of a water solution of the ammonium salt. Benzyladenine was added as technical powder. Ten μl Tween-20 were added to each sample to help wet and suspend the benzyladenine powder. All of the seed treatment slurry samples contained CF-Clear film-forming agent and Color Coat Red (Becker Underwood), each at 1 oz/cwt, and 0.167 oz/cwt Maxim XL fungicide (Syngenta). The slurry application volume was 40 […]=100 lbs of seed). Ten gram samples of canola seed were treated with the experimental slurries using a Hege 11 seed treater with a six-inch bowl. The seed was planted in plastic boxes containing 1 kg of typical agricultural silt loam. One hundred seeds were planted 2 cm deep in each plastic box, and the soil in the box was adjusted to 21% soil moisture (wet-weight basis). Two replications of the experiment were incubated under constant light in a 10° C. chamber. The soil temperature averaged 12.6° C. The boxes were watered up to the correct weight every 1-2 days, and checked for emergence. Counts of seedlings were continued until it became clear that emergence had ceased (28 days). The final count of emerged seedlings was expressed as a percentage of the 100 seeds planted. The daily counts were converted to proportions of the final emergence of the box, and a Gompertz curve was fitted to the data from each box using SAS Proc NLIN. […] Analysis of variance was performed and means calculated for each of the three responses (Final emergence, […]).

canola seed [3] = assay: Canola seed treatment, soil emergence: ABA-dose x CPPU (as Prestige) dose factorial
Description: as §1, §2
The experiment was set up as an ABA-dose×CPPU-dose factorial experiment, with four doses of ABA (0, 25, 50 and 100 g/cwt) and […] doses of CPPU (0, 0.04, 0.2 and 1 g/cwt) for a total of 16 treatment combinations. The treatments were made up in 1 ml samples of experimental aqueous seed treatment slurry. ABA was added as the free acid. CPPU was added in the form of Prestige®. Treatments receiving less than the maximum amount of Prestige, received an appropriate amount of Prestige blank formulation, so that each slurry sample was identical with regard to Prestige inert ingredients. All of the seed treatment slurry samples contained CF-Clear film-forming agent and Colorcoat Red (Becker Underwood), each at 1 oz/cwt, and 0.167 oz/cwt Maxim XL fungicide (Syngenta). The slurry application volume was 40 oz/cwt (cwt=100 lbs of seed). Ten gram samples of canola seed were treated with the experimental slurries using a Hege 11 seed treater with a six-inch bowl.
The seed was germinated and data analyzed as described under Example 1, except that emergence, being unusually low in this trial, rendered the quartile range estimates unreliable. Therefore, quartile range values are not shown.

canola seed [4] = assay: Canola seed treatment, soil emergence: ABA-dose x GA4/7 dose factorial; conditions: for Final emergence / QR / T50: GA4/7 dose 0 g/cwt
Description: The experiment was set up as an ABA-dose×GA4/7-dose factorial experiment, with four doses of ABA (0, 25, 50 and 100 g/cwt) and […] doses of GA4/7 (0, 1, 5 and 25 g/cwt) for a total of 16 treatment combinations. The treatments were made up in 1 ml samples of experimental aqueous seed treatment slurry. ABA and GA4/7 were added as the free acid technical powders. All of the seed treatment slurry samples contained CF-Clear film-forming agent and Colorcoat Red (Becker Underwood), each at 1 oz/cwt, and 0.167 oz/cwt Maxim XL fungicide (Syngenta). The slurry application volume was 40 oz/cwt (cwt=100 lbs of seed). Ten gram samples of canola seed were treated with the experimental slurries using a Hege 11 seed treater with a six-inch bowl.

[5] = ABA dose 0 g/cwt, Benzyladenine dose 1 g/cwt (in the form of Maxcel)
[6] = ABA dose 0 g/cwt, Benzyladenine dose 5 g/cwt (in the form of Maxcel)
[7] = ABA dose 0 g/cwt, Benzyladenine dose 1 g/cwt (technical powder)
[8] = ABA dose 0 g/cwt, Benzyladenine dose 5 g/cwt (technical powder)
[9] = ABA dose 0 g/cwt, Benzyladenine dose 25 g/cwt (technical powder)
[10] = ABA dose 0 g/cwt, CPPU dose 0.04 g/cwt (in the form of Prestige)
[11] = ABA dose 0 g/cwt, CPPU dose 0.2 g/cwt (in the form of Prestige)
[12] = ABA dose 0 g/cwt, CPPU dose 1 g/cwt (in the form of Prestige)
[13] = ABA (free acid) dose 25 g/cwt, CPPU dose 0 g/cwt (Prestige blank)
[14] = ABA (free acid) dose 50 g/cwt, CPPU dose 0 g/cwt (Prestige blank)
[15] = ABA (free acid) dose 100 g/cwt, CPPU dose 0 g/cwt (Prestige blank)
[16] = ABA (ammonium salt) dose 25 g/cwt, Benzyladenine dose 0 g/cwt (Maxcel blank)
[17] = ABA (ammonium salt) dose 50 g/cwt, Benzyladenine dose 0 g/cwt (Maxcel blank)
[18] = ABA (ammonium salt) dose 100 g/cwt, Benzyladenine dose 0 g/cwt (Maxcel blank)
[19] = ABA (ammonium salt) dose 25 g/cwt, Benzyladenine dose 0 g/cwt
[20] = ABA (ammonium salt) dose 50 g/cwt, Benzyladenine dose 0 g/cwt
[21] = ABA (ammonium salt) dose 100 g/cwt, Benzyladenine dose 0 g/cwt

## c1ccc(CNc2[nH]cnc3ncnc2-3)cc1 [Benzyladenine, N^6-phenylmethyl-1H-purin-6-amine]
Canola seed [1]; [5]
  Final emergence: 97.5%
  Qrange: 1.84 days
  T50: 6.02 days
Canola seed [1]; [6]
  Final emergence: 97.1%
  Qrange: 1.77 days
  T50: 6.09 days
Canola seed [2]; [7]
  Final emergence: 98.0%
  Qrange: 1.30 days
  T50: 6.37 days
Canola seed [2]; [8]
  Final emergence: 91.6%
  Qrange: 2.36 days
  T50: 6.76 days
Canola seed [2]; [9]
  Final emergence: 89.9%
  Qrange: 3.02 days
  T50: 7.88 days

## O=C(Nc1ccccc1)Nc1ccnc(Cl)c1 [CPPU]
Canola seed [3]; [10]
  Final emergence: 80.3%
  T50: 7.12 days
Canola seed [3]; [11]
  Final emergence: 78.1%
  T50: 7.48 days
Canola seed [3]; [12]
  Final emergence: 77.6%
  T50: 8.30 days

## S-(+)- abscisic acid [ABA]
Canola seed [4]; ABA (free acid) dose 25 g/cwt
  Final emergence: 84.0%
  QR: 3.33 days
  T50: 10.42 days
Canola seed [4]; ABA (free acid) dose 50 g/cwt
  Final emergence: 66.0%
  QR: 3.38 days
  T50: 12.16 days
Canola seed [4]; ABA (free acid) dose 100 g/cwt
  Final emergence: 48.0%
  QR: 5.69 days
  T50: 16.48 days
Canola seed [4]; high doses of ABA alone
  emergence: significant and important reduction in emergence
Canola seed [3]; [13]
  Final emergence: 84.0%
  T50: 10.4 days
Canola seed [3]; [14]
  Final emergence: 66.0%
  T50: 12.16 days
Canola seed [3]; [15]
  Final emergence: 48.0%
  T50: 16.48 days
Canola seed [3]; high doses of ABA
  emergence: significant and important reduction in emergence
Canola seed [1]; [16]
  Final emergence: 92.9%
  Qrange: 2.06 days
  T50: 8.17 days
Canola seed [1]; [17]
  Final emergence: 91.4%
  Qrange: 3.74 days
  T50: 10.57 days
Canola seed [1]; [18]
  Final emergence: 49.5%
  Qrange: 5.84 days
  T50: 13.61 days
Canola seed [1]; ABA at a dose of 100 g/cwt
  Final emergence: roughly cut in half
Canola seed [2]; [19]
  Final emergence: 92.3%
  Qrange: 3.26 days
  T50: 9.15 days
Canola seed [2]; [20]
  Final emergence: 68.9%
  Qrange: 4.27 days
  T50: 11.20 days
Canola seed [2]; [21]
  Final emergence: 53.5%
  Qrange: 4.27 days
  T50: 12.74 days
Canola seed [2]; ABA at a dose of 100 g/cwt
  Final emergence: roughly cut in half
